Experimental data reported in patent EP4186382A1, “MESH MATERIALS FOR CONTROLLED RELEASE OF ANTIVIRALS, METHOD AND USE” (Universidade Federal de Minas Gerais, priority 2020, dated 2022).
“And” between values parts separate entries of the source, which are not always exact repeats. Identical values can stand only once. Like-named read-outs stand apart in the source and are kept apart here.

What was measured:
[1] = tested on: Coronavirus (MHV-3 Strain); format: cell-based, Coronavirus MHV-3 Strain genus Betacoronavirus
[2] = Solubility in water when preparing calibration standards; format: physicochemical
Description: The calibration curve used the following standards: Standard #1 - 99.5% chlorhexidine (CAS 55-56-1) from Sigma-Aldrich, Standard #2 - 20% solution of chlorhexidine digluconate in solution (CAS 18472-51-0). Samples with both standards were prepared in deionized water. […] With Standard #2 it was possible to obtain a good reproducibility of the areas; therefore, it was decided to perform the calibration curve with standard #2.

Q: Which results are given for `N=C(NCCCCCCNC(=N)NC(=N)Nc1ccc(Cl)cc1)NC(=N)Nc1ccc(Cl)cc1` [5% Chlorhexidine, 1,1'-hexamethylene-bis(5-(p-chlorophenyl)-biguanide)]?
A: time after which activity was lost ([1]; concentration of 5%): ≤ 10 min; Infectivity Reduction (Virus Titer 10^8/mL) ([1]; contact time 1 minute): 10^4; Coronavirus (MHV-3 Strain) inactivation ([1]; contact time 1 minute, listed as Chlorhexidine 5.0%): 99.99%; Infectivity Reduction (Virus Titer 10^8/mL) ([1]; contact time 5 minutes): 10^4; Coronavirus (MHV-3 Strain) inactivation ([1]; contact time 5 minutes, listed as Chlorhexidine 5.0%): 99.99%; Coronavirus (MHV-3 Strain) inactivation ([1]; contact time 10 minutes): 99.9% and 99.99%; Infectivity Reduction (Virus Titer 10^8/mL) ([1]; contact time 10 minutes): 10^5; Coronavirus (MHV-3 Strain) inactivation ([1]; contact time 10 minutes, listed as Chlorhexidine 5.0%): 99.9%; Coronavirus (MHV-3 Strain) inactivation ([1]; contact time 1 hour): Not effective; Coronavirus (MHV-3 Strain) inactivation ([1]; contact time 4 hours): Not effective; Coronavirus (MHV-3 Strain) inactivation ([1]; contact time Immediate): Not Effective

Q: Which solubility in water [2] does the source give for `[H]/N=C(\N/C(=N/[H])NCCCCCCNC(=N)NC(=N)Nc1ccc(Cl)cc1)Nc1ccc(Cl)cc1` [Chlorhexidine, 1,1'-hexamethylene-bis(5-(p-chlorophenyl)-biguanide)] here?
A: very low solubility in water

Q: With `N=C(NCCCCCCNC(=N)NC(=N)Nc1ccc(Cl)cc1)NC(=N)Nc1ccc(Cl)cc1.O=C(O)[C@H](O)[C@@H](O)[C@H](O)[C@H](O)CO.O=C(O)[C@H](O)[C@@H](O)[C@H](O)[C@H](O)CO` [chlorhexidine digluconate] as the molecule, how does the solubility in water ([2]; deionized water) read?
A: no solubility problems
